Assay results: paper PMC13625682, “Inhibitor fluorination pattern modulates protein surface dynamics and chemically induced dimerization” (Chemical Science, 2026)
Where two headings read alike, the source gives them in different places.

Key:
[1] = system: T1, Tpx; test: In vitro Tpx activity assay: reconstituted peroxide clearance cascade, NADPH consumption followed photometrically; type: biochemical, Trypanosoma brucei; details: for speed of Tpx inactivation: Tpx-equimolar concentrations (5 µM); for second-order rate constant k2nd of irreversible Tpx inhibition: 5 µM Tpx, 25 °C, slope of kobs vs inhibitor concentration
T1 construct: with residue G1 and end with N144; GAMG (TEV-cleavage scar that replaces Met1); Trx-His6 (thioredoxin fusion with His6 tag) (N, cleaved yes); made in house; host or cells: E. coli BL21-Gold(DE3)

[2] = target: T2, Tpx WT (Trypanosoma brucei brucei, UniProt O77404); test: Dilution ITC of covalent Tpx/inhibitor complexes (dimer dissociation); type: binding; details: according to dimer KD
T2 construct: with residue G1 and end with N144; GAMG (TEV-cleavage scar that replaces Met1); Trx-His6 (thioredoxin fusion with His6 tag) (N, cleaved yes); made in house; host or cells: E. coli BL21-Gold(DE3)
T2 sequence (O77404 with tags, fused parts or gaps limits assumed): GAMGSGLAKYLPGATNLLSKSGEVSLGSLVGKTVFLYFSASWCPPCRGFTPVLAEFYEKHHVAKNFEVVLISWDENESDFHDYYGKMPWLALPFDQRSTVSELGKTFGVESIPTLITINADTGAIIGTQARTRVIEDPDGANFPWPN
Experimental: Isothermal Titration Calorimetry (ITC)
Dissociation coefficients (K D) of dimeric Tpx/inhibitor complexes were determined via dilution ITC following our previously established protocol. 4 Purified complexes in Tpx buffer were titrated to Tpx buffer, and the heat signals of each injection was recorded. To observe dimer dissociation, measurements were conducted with 78 µM (Tpx/para-CFT), 122 µM (Tpx/meta-CFT), 277 µM (Tpx/ortho-CFT), 821 µM (Tpx/CtFT), and 176 µM (Tpx/CPT). A MicroCal PEAQ-ITC Automated […]
1, 3 and 5. After the initial wait time of 2 min, 19 serial injections of 2 μL with a spacing of 3 min where performed. The reference power was set to 11 μcal sec-1 and stirring speed to 750 rpm. A MicroCal PEAQ-ITC (Malvern Panalytical) with the same experimental setup was used to determine the KD value of covalent Tpx WT complexes with meta-CFT (2, 10 injections), and CtFT (4, 20 injections). Each titration was performed in a technical triplicate, and controls included water to water and unmodified Tpx to buffer titrations. Transferability between instruments was checked by repeating the Tpx/para -CFT […]
titration. […]

[3] = system: T1, Tpx; test: SEC-MALS of Tpx/inhibitor complexes; type: binding, Trypanosoma brucei; details: for SEC-MALS Mw of Tpx/inhibitor complex: 100 µM analyte, value ± measurement error
Experimental: Size Exclusion Chromatography Coupled To Multi-Angle Light Scattering (SEC-MALS) To determine the oligomeric state of Tpx/inhibitor complexes by SEC-MALS, 100 µM of purified Tpx/inhibitor complexes were applied to a SEC column (Superdex75 10/300, GE Healthcare) in Tpx buffer (25 mM NaPi pH 7.5, 150 mM NaCl) at a flow rate of 0.5 ml/min at room temperature. The molecular weights of the eluting proteins were measured using a Dawn Heleos 8+ light scattering detector and an Optilab T-rEX refractive index detector (Wyatt Technologies). Data were analyzed with […]

[4] = system: T. brucei brucei 449 Lister 427 parasites; test: Trypanosome cell survival assay (ATPlite luminescence); type: cell-based, Trypanosoma brucei brucei; details: for Selectivity index (24 h), EC50 HEK293 cells divided by EC50 T. brucei: HEK293 vs T. brucei brucei 449, 24 h; for EC50: Trypanosoma brucei
Experimental: Trypanosome and HEK293 Cell Survival Assays
Half maximal effective concentration (EC50) values of compounds 1- 5 against T. brucei brucei 449 Lister 427 parasites were determined with an ATPlite Luminescence assay as described previously.4,5 The EC50 was defined as the compound concentration at which a fifty percent decrease in relative […]
(§1) 1-5 in human embryonic kidney (HEK293) was determined with a resazurin assay, which is based on the reduction of resazurin to fluorescent resorufin by living cells.6 HEK293 cells were maintained in DMEM high glucose supplemented with 10% FBS, 1% penicillin/streptomycin and 1% L-glutamine at 37 °C and 5% CO2. For the toxicity screen, 40000 cells per well were seeded in a 48 well plate (400 µL medium/well) and incubated at 37 °C for 24 hours before treatment with inhibitors 1-5. Cells were treated with 0.1 µM, 0.3 µM, 0.7 µM, 1 µM, 3 µM, 7 µM, 10 µM, 30 µM, 70 µM and 100 µM of the respective inhibitor, DMSO treatment served as negative control. The overall DMSO concentration was kept at 1 vol.% DMSO per well. After 24 hours of treatment, the medium was exchanged with a medium/resazurin mixture (0.015 mg/mL resazurin per well) and the cells were incubated for 3 h at 37 °C before transferring 100 µl medium from each well into a black opaque-walled 96-well plate. Fluorescence was directly measured using a CLARIOstar Plus reader (BMG Labtech GmbH, Ortenberg, Germany) with a 545-20 nm excitation / 600-40 nm emission filter. Each experiment was done in biological quadruplets and cell viability was analyzed in comparison to the DMSO control by plotting relative fluorescence units (RFU) against inhibitor concentration (Prism, Graphpad). A fifty percent decrease in relative fluorescence indicated the compound concentration where half of the HEK293 cells had died, which […]
(§2) In Vitro Tpx Activity Assay and Inactivation Kinetics
(§3) To reconstitute the peroxide clearance cascade (PCC), its components (at final concentrations of 360 µM NADPH, 0.1 U/mL TR, 110 µM TS2, 5 µM Tpx, 180 nM Px, 100 µM H2O2) were mixed in a total volume of 200 µL in a 10 mm quartz cuvette. First, 15 µL NADPH (4.8 mM in TR buffer (40 mM HEPES pH 7.5, 1 mM Na-EDTA), 10 µL TR (2 U/mL in TR buffer), 10 µL TS2 (2.2 mM in sterile filtered, deionized

[5] = system: HEK293 cells; test: HEK293 cell survival assay (resazurin); type: cell-based; details: Homo sapiens; HEK293, 24 h incubation
Experimental: Trypanosome and HEK293 Cell Survival Assays […]
as §1, §2, §3

[6] = target: T3, Tryparedoxin (Trypanosoma brucei, UniProt O77404); test: dilution ITC
T3 chain: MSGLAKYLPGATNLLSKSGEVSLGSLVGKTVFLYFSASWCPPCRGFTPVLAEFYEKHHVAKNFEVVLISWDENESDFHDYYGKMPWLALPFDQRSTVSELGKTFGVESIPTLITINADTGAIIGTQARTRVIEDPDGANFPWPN

[7] = bloodstream form T. brucei brucei 449, 24 h incubation, read-out: EC50 (24 h)
[8] = bloodstream form T. brucei brucei 449, 48 h incubation, read-out: EC50 (48 h)

O=c1[nH]c(CCl)nc2scc(-c3ccccc3F)c12 [ortho-CFT, 2-(chloromethyl)-5-(2-fluorophenyl)thieno[2,3-d]-pyrimidin-4(3H)-one]
speed of Tpx inactivation [1]: fastest
portion of Tpx WT/inhibitor complex dimeric ([2]; 750 µM analyte): 87%
SEC-MALS Mw of Tpx/inhibitor complex [3]: 17.5 ± 0.9 kDa
Selectivity index (24 h), EC50 HEK293 cells divided by EC50 T. brucei [4]: 5.0 ± 1.6
EC50 [4, 7]: 1000 ± 300 nM
EC50 [4, 8]: 800 ± 300 nM
EC50 [5]: 5000 ± 600 nM

O=c1[nH]c(CCl)nc2scc(-c3ccc(C(F)(F)F)cc3)c12 [CtFT, 2-(chloromethyl)-5-(4-(trifluoromethyl)phenyl)thieno[2,3-d]pyrimidin-4(3H)-one]
second-order rate constant k2nd of irreversible Tpx inhibition [1]: 1870 ± 17 M⁻¹ s⁻¹
speed of Tpx inactivation [1]: fastest
oligomeric state of inhibitor-bound Tpx by SEC-MALS ([3]; 100 µM analyte concentration): remained monomeric
SEC-MALS Mw of Tpx/inhibitor complex [3]: 16.6 ± 0.7 kDa
Selectivity index (24 h), EC50 HEK293 cells divided by EC50 T. brucei [4]: 1.8 ± 0.5
EC50 [4, 7]: 2200 ± 600 nM
EC50 [4, 8]: 2500 ± 600 nM
EC50 [5]: 3900 ± 300 nM

O=c1[nH]c(CCl)nc2scc(-c3ccccc3)c12 [CPT, 2-(chloromethyl)-5-phenylthieno[2,3-d]pyrimidin-4(3H)-one]
SEC-MALS Mw of Tpx/inhibitor complex [3]: 19.5 ± 0.6 kDa
Selectivity index (24 h), EC50 HEK293 cells divided by EC50 T. brucei [4]: 8.2 ± 4.2
EC50 [4, 7]: 600 ± 300 nM
EC50 [4, 8]: 1400 ± 400 nM
EC50 [5]: 4900 ± 600 nM

O=c1[nH]c(CCl)nc2scc(-c3ccc(F)cc3)c12 [para-CFT, 2-(chloromethyl)-5-(4-fluorophenyl)-thieno[2,3-d]pyrimidin-4(3H)-one]
portion of Tpx WT/inhibitor complex dimeric ([2]; 100 µM analyte): 85%
SEC-MALS Mw of Tpx/inhibitor complex [3]: 21.3 ± 1.1 kDa
Selectivity index (24 h), EC50 HEK293 cells divided by EC50 T. brucei [4]: 3.0 ± 0.8
EC50 [4, 7]: 1300 ± 300 nM
EC50 [4, 8]: 1500 ± 300 nM
EC50 [5]: 3900 ± 400 nM

O=c1[nH]c(CCl)nc2scc(-c3cccc(F)c3)c12 [meta-CFT, 2-(chloromethyl)-5-(3-fluorophenyl)thieno[2,3-d]pyrimidin-4(3H)-one]
second-order rate constant k2nd of irreversible Tpx inhibition [1]: 933 ± 17 M⁻¹ s⁻¹
speed of Tpx inactivation [1]: slowest
SEC-MALS Mw of Tpx/inhibitor complex [3]: 23.6 ± 0.9 kDa
Selectivity index (24 h), EC50 HEK293 cells divided by EC50 T. brucei [4]: 5.0 ± 1.6
EC50 [4, 7]: 1300 ± 400 nM
EC50 [4, 8]: 1100 ± 500 nM
EC50 [5]: 6500 ± 500 nM

B1: Tryparedoxin (protein)
chain: MSGLAKYLPGATNLLSKSGEVSLGSLVGKTVFLYFSASWCPPCRGFTPVLAEFYEKHHVAKNFEVVLISWDENESDFHDYYGKMPWLALPFDQRSTVSELGKTFGVESIPTLITINADTGAIIGTQARTRVIEDPDGANFPWPN
modifications: meta-CFT covalently bound at C40
Kd [6]: 3700 nM

B2: Tryparedoxin (protein)
chain: MSGLAKYLPGATNLLSKSGEVSLGSLVGKTVFLYFSASWCPPCRGFTPVLAEFYEKHHVAKNFEVVLISWDENESDFHDYYGKMPWLALPFDQRSTVSELGKTFGVESIPTLITINADTGAIIGTQARTRVIEDPDGANFPWPN
modifications: CtFT covalently bound at C40
Kd [6]: 410000 nM
